Assay: Henry solubility constant Hcp at 310 K (mol/(m3 Pa))
Settings: reference: Sato and Nakajima (1979b)

| SMILES | Henry solubility constant Hcp at 310 K |
| --- | --- |
| ClCC(Cl)(Cl)Cl [1,1,1,2-tetrachloroethane] | 0.0021 |
| CC(Cl)(Cl)Cl [1,1,1-trichloroethane] | 0.00036 |
| ClC(Cl)C(Cl)Cl [1,1,2,2-tetrachloroethane] | 0.014 |
| ClCC(Cl)Cl [1,1,2-trichloroethane] | 0.0066 |
| CC(Cl)CCl (stereo not drawn) [1,2-dichloropropane] | 0.0021 |
| Clc1cccc(Cl)c1 [1,3-dichlorobenzene] | 0.0021 |
| CCCCCl [1-chlorobutane] | 0.00033 |
| CCCCCCl [1-chloropentane] | 0.00027 |
| Clc1ccccc1 [chlorobenzene] | 0.0016 |
| ClCCl [dichloromethane] | 0.0028 |
| ClC(Cl)=C(Cl)Cl [tetrachloroethene] | 0.00017 |
| ClC(Cl)(Cl)Cl [tetrachloromethane] | 9.7e-05 |
| ClC=C(Cl)Cl [trichloroethene] | 0.0005 |

Source: Sander's compilation of Henry's law constants (doi:10.1080/00039896.1979.10667371)
